Assay results taken from ChEMBL document CHEMBL5053551, “Structure-Based Design of Dual Partial Peroxisome Proliferator-Activated Receptor γ Agonists/Soluble Epoxide Hydrolase Inhibitors” (J Med Chem, 2021).
Calls of active or inactive are those of the source. The calls are words filed in the database; no cut-off is given here.

How the values were obtained:
[1] = biological target: T1, Peroxisome proliferator-activated receptor delta (Homo sapiens) (UniProt Q03181); assay: Partial agonist activity at GAL4-tagged human PPARdelta LBD expressed in HEK293T cells at 3 uM incubated for 12 to 14 hrs by dual-Glo luciferase assay; assay type: cell-based; conditions: time 12-14 hrs
T1 sequence (whole entry): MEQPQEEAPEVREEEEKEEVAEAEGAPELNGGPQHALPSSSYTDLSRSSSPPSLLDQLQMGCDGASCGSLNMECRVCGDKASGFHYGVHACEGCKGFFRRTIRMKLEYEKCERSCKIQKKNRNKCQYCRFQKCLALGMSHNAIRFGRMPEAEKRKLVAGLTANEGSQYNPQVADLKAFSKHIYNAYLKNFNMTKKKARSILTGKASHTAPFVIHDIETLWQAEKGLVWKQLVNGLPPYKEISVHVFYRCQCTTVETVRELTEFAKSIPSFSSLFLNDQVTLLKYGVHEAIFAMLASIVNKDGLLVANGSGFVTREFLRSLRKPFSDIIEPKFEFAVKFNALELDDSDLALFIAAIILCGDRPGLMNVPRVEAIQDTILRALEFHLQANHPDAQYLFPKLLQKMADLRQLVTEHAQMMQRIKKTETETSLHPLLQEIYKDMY

HepG2 [2] = assay: Induction of cell proliferation in human HepG2 cells; assay type: functional, cell-based; conditions: dose 2.5-100 µM
HepG2 [3] = assay: Cytotoxicity against human HepG2 cells assessed as reduction in ATP level upto 10 uM after 72 hrs by CellTiter-glo luminescence assay; assay type: cell-based; conditions: hepg2, 72 h
[4] = Stability of compound in BALB/c mouse liver microsomes assessed as half life at 10 uM preincubated for 5 mins in presence of NADPH regenerating system followed by microsomal addition and measured upto 60 mins by HPLC analysis; assay type: ADME, Microsome; conditions: time 65 min
[5] = biological target: T2, Vitamin D3 receptor (Homo sapiens) (UniProt P11473); assay: Partial agonist activity at GAL4-tagged human VDR LBD expressed in HEK293T cells at 3 uM incubated for 12 to 14 hrs by dual-Glo luciferase assay; assay type: cell-based; conditions: filed as partial agonist, time 12-14 hrs
T2 sequence (whole entry): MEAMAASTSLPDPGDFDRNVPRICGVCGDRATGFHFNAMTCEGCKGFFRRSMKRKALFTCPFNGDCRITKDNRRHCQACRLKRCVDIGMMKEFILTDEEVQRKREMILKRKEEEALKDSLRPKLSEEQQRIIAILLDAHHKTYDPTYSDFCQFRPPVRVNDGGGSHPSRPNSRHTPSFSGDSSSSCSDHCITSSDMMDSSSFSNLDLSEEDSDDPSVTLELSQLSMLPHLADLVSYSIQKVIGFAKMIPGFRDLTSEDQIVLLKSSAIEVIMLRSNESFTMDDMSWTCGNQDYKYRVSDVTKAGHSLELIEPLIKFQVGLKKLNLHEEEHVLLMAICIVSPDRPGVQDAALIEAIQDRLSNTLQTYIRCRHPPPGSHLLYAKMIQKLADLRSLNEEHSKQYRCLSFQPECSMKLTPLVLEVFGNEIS

[6] = biological target: T3, Peroxisome proliferator-activated receptor gamma (Homo sapiens, UniProt P37231); assay: Partial agonist activity at GAL4-tagged human PPARgamma LBD expressed in HEK293T cells incubated for 12 to 14 hrs by dual-Glo luciferase assay; assay type: cell-based
T3 sequence (P37231 whole entry): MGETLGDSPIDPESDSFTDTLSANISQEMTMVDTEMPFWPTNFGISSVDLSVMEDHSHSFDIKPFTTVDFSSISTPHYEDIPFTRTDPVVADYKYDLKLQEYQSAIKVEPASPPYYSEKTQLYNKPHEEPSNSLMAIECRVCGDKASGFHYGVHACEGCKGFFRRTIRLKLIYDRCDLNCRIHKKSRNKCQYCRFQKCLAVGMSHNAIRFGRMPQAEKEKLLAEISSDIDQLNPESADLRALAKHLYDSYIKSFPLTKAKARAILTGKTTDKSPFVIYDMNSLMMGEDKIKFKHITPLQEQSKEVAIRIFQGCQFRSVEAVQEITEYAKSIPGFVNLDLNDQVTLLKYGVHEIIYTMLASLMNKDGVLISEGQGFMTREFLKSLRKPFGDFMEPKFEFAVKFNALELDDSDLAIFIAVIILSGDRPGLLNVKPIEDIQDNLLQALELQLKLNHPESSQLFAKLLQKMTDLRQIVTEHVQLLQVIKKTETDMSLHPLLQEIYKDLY

HepG2 [7] = assay: Cytotoxicity agianst human HepG2 cells assessed as reduction in cell viability at 30 uM after 48 hrs by WST-1 assay; assay type: cell-based; conditions: hepg2, 48 h
[8] = biological target: T4, Bifunctional epoxide hydrolase 2 (Homo sapiens, UniProt P34913); assay: Inhibition of recombinant human full length sEH assessed as reduction in 6-methoxy-2-naphthaldehyde formation using PHOME as substrate preincubated for 30 to 45 mins followed by substrate addition and measured after 30 to 45 mins by fluorescence assay
T4 sequence (P34913 whole entry): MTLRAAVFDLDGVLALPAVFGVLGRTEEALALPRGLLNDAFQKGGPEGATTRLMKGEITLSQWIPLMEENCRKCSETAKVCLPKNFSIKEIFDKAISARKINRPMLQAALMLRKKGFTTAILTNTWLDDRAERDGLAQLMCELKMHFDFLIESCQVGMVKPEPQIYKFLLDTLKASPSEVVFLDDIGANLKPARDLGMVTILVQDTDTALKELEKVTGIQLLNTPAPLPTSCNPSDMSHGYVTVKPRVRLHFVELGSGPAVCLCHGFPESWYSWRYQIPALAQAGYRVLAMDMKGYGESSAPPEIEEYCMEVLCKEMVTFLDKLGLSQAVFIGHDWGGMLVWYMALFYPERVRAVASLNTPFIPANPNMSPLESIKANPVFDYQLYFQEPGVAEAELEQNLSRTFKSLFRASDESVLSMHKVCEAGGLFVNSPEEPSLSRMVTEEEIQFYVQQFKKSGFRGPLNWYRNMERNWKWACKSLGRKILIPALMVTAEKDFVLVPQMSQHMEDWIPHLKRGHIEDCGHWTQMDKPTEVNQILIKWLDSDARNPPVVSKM

[9] = biological target: T3, Peroxisome proliferator-activated receptor gamma; assay: Partial agonist activity at recombinant sGSF-PPARgamma (unknown origin) assessed as reduction in rosiglitazone induced CBP-1 recruitment incubated for 1 hr by HTRF competitive assay
HepG2 [10] = assay: Cytotoxicity agianst human HepG2 cells assessed as reduction in cell viability at 10 to 30 uM after 48 hrs by WST-1 assay; assay type: cell-based; conditions: hepg2, 48 h, dose 10-30 µM
[11] = Drug metabolism in rat liver microsomes assessed as metabolite formation after 60 mins by UPLC-MS analysis; assay type: ADME, Microsome; conditions: 1 h

SMILES | Activity [1] | Activity (HepG2 [2]) | Activity (HepG2 [3]) | half-life at 10 µM [4] [h] | Activity [5] | EC50 [6] [nM] | Activity (HepG2 [7]) | IC50 [8] [nM] | IC50 [9] [nM] | Activity (HepG2 [10]) | Drug metabolism [11]
O=C(NCc1ccc(NS(=O)(=O)C2CC2)cc1C(F)(F)F)c1ccc2c(ccn2Cc2cccc(F)c2)c1 | inactive | Dose-dependent effect | Non-Toxic | 0.983 | Active | 220 | Non-Toxic | – | – | – | –
CS(=O)(=O)Nc1ccc(CNC(=O)c2ccc3c(ccn3Cc3cccc(F)c3)c2)c(C(F)(F)F)c1 | inactive | – | Non-Toxic | 1.02 | Active | 190 | – | 5 | 1620 | Toxic | Metabolite_Detected
